Measurements from the supplement of paper PMC10307832.

Key:
Assay in all cases: relative viability (nuclei count vs DMSO), 5 days (fraction); higher = more cells survive
Tanzisertib + Navitoclax = compound: O[C@H]1CC[C@H](Nc2ncc3nc(Nc4c(F)cc(F)cc4F)n([C@H]4CCOC4)c3n2)CC1 [Tanzisertib] + CC1(C)CCC(c2ccc(Cl)cc2)=C(CN2CCN(c3ccc(C(=O)NS(=O)(=O)c4ccc(N[C@H](CCN5CCOCC5)CSc5ccccc5)c(S(=O)(=O)C(F)(F)F)c4)cc3)CC2)C1 [Navitoclax] (partner 0.5 µM)
Method in brief: (§1)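 Medians of duplicate plates are given as relative viability. That measure is the nuclei count in treated wells divided by the count in vehicle wells. Counts were taken on 4× images of lung cancer cell lines in 1536-well plates, 5 days after pin-tool dosing the day after seeding with one drug alone or a fixed anchor-drug dose plus five library-drug doses (not always all listed) in √10 steps.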

Tanzisertib + Alpelisib = compound: O[C@H]1CC[C@H](Nc2ncc3nc(Nc4c(F)cc(F)cc4F)n([C@H]4CCOC4)c3n2)CC1 [Tanzisertib] + Cc1nc(NC(=O)N2CCC[C@H]2C(N)=O)sc1-c1ccnc(C(C)(C)C(F)(F)F)c1 [Alpelisib] (partner 2 µM)
Method in brief: as §1

[1] = compound: C1CNCCC1C2=CC(=NN2)C3=CC=NC=C3 + CC1(C)CCC(c2ccc(Cl)cc2)=C(CN2CCN(c3ccc(C(=O)NS(=O)(=O)c4ccc(N[C@H](CCN5CCOCC5)CSc5ccccc5)c(S(=O)(=O)C(F)(F)F)c4)cc3)CC2)C1 [Navitoclax] (partner 0.5 µM)
Method in brief: as §1

Tanzisertib + Tozasertib = compound: O[C@H]1CC[C@H](Nc2ncc3nc(Nc4c(F)cc(F)cc4F)n([C@H]4CCOC4)c3n2)CC1 [Tanzisertib] + Cc1cc(Nc2cc(N3CCN(C)CC3)nc(Sc3ccc(NC(=O)C4CC4)cc3)n2)n[nH]1 [Tozasertib] (partner 0.1 µM)
Method in brief: as §1

Cell Line	relative viability (Tanzisertib + Navitoclax; first compound 0.08 µM)	relative viability (Tanzisertib + Navitoclax; first compound 0.253 µM)	relative viability (Tanzisertib + Navitoclax; first compound 0.8 µM)	relative viability (Tanzisertib + Navitoclax; first compound 2.53 µM)	relative viability (Tanzisertib + Navitoclax; first compound 8 µM)	relative viability (Tanzisertib + Alpelisib; first compound 0.08 µM)	relative viability (Tanzisertib + Alpelisib; first compound 0.253 µM)	relative viability (Tanzisertib + Alpelisib; first compound 0.8 µM)	relative viability (Tanzisertib + Alpelisib; first compound 2.53 µM)	relative viability (Tanzisertib + Alpelisib; first compound 8 µM)	relative viability ([1]; first compound 0.08 µM)	relative viability ([1]; first compound 0.8 µM)	relative viability ([1]; first compound 2.53 µM)	relative viability ([1]; first compound 8 µM)	relative viability (Tanzisertib + Tozasertib; first compound 0.08 µM)	relative viability (Tanzisertib + Tozasertib; first compound 0.253 µM)	relative viability (Tanzisertib + Tozasertib; first compound 0.8 µM)	relative viability (Tanzisertib + Tozasertib; first compound 2.53 µM)	relative viability (Tanzisertib + Tozasertib; first compound 8 µM)
LXF-289	1.05	0.917	1	0.962	1.03	1.06	1.02	1.05	1.04	1.11	0.957	1.02	0.977	0.934	0.236	0.165	0.149	0.17	0.147
NCI-H23	0.964	0.75	0.912	0.86	0.819	0.63	0.617	0.705	0.747	0.718	0.711	0.908	1.09	0.948	0.369	0.362	0.306	0.29	0.293
NCI-H322M	1.34	1.12	1.11	1.16	1.16	0.935	0.648	0.774	0.669	0.776	1.22	1.19	1.24	1.18	0.473	0.468	0.498	0.487	0.499
NCI-H441	0.456	0.601	0.629	0.773	0.584	0.925	0.69	0.674	0.713	0.635	–	0.915	0.836	0.704	0.568	0.71	0.512	0.422	0.698
NCI-H460	1.32	1.21	0.986	1.2	1.24	0.716	0.441	0.477	0.356	0.286	0.888	1.38	1.17	1.29	0.548	0.376	0.457	0.382	0.099
NCI-H520	1.12	1.1	1.1	1.01	1.11	0.958	0.886	1.07	0.937	0.927	1.06	1.01	1.06	1.28	0.411	0.464	0.403	0.428	0.414
NCI-H596	0.978	0.91	0.972	0.888	0.96	0.539	0.448	0.421	0.407	0.471	1.01	1.07	1.02	0.958	1.02	0.809	0.971	1.06	0.715
NCI-H647	1.11	1.18	1.22	1.3	0.943	1.12	1.31	1.16	1.26	1.08	1.18	1.33	1.37	1.12	0.283	0.269	0.281	0.388	0.226
NCI-H727	0.377	0.354	0.481	0.477	0.502	0.511	0.463	0.654	0.515	0.684	0.411	0.459	0.623	0.67	0.702	0.714	0.699	0.663	0.66
NCI-H838	1.18	1.15	1.26	1.18	1.12	1.02	1	0.92	0.965	0.973	1.13	1.11	1.25	1.14	0.317	0.283	0.301	0.249	0.237
NCI-H1355	0.954	0.923	0.961	0.985	0.944	0.838	0.871	0.886	0.864	0.881	0.919	0.813	1.09	0.871	0.526	0.562	0.576	0.528	0.405
NCI-H1395	1.05	1.27	1.43	1.1	1.01	1.11	1.14	1.04	1.04	0.983	1.15	0.976	1.23	1.13	0.869	0.773	0.783	0.687	0.712
NCI-H1437	1.14	1.1	1.08	1.13	1.08	0.998	1	0.964	0.958	0.722	1.06	1.11	1.1	1.12	0.451	0.394	0.407	0.381	0.384
NCI-H1651	1.07	0.915	1.18	1.11	0.854	1.17	0.934	1.01	0.988	0.817	0.897	1.07	0.963	1.16	0.711	0.707	0.637	0.689	0.557
NCI-H1666	0.972	1.03	0.916	1.06	0.878	0.935	1.01	1.06	1.1	1.01	0.807	0.877	1.06	1.02	0.609	0.698	0.611	0.656	0.592
NCI-H1734	1.03	0.777	0.852	0.867	0.757	0.724	0.704	0.673	0.702	0.642	0.703	1.01	0.88	0.852	0.267	0.282	0.254	0.251	0.236
NCI-H1755	1.1	1.02	0.98	0.982	0.931	1.05	0.897	0.918	0.84	0.852	0.978	0.942	1.04	0.935	0.58	0.618	0.561	0.582	0.533

Cell Line	relative viability (Tanzisertib + Navitoclax; first compound 0.08 µM)	relative viability (Tanzisertib + Navitoclax; first compound 0.253 µM)	relative viability (Tanzisertib + Navitoclax; first compound 0.8 µM)	relative viability (Tanzisertib + Navitoclax; first compound 2.53 µM)	relative viability (Tanzisertib + Navitoclax; first compound 8 µM)	relative viability (Tanzisertib + Alpelisib; first compound 0.08 µM)	relative viability (Tanzisertib + Alpelisib; first compound 0.253 µM)	relative viability (Tanzisertib + Alpelisib; first compound 0.8 µM)	relative viability (Tanzisertib + Alpelisib; first compound 2.53 µM)	relative viability (Tanzisertib + Alpelisib; first compound 8 µM)	relative viability ([1]; first compound 0.08 µM)	relative viability ([1]; first compound 0.8 µM)	relative viability ([1]; first compound 2.53 µM)	relative viability ([1]; first compound 8 µM)	relative viability (Tanzisertib + Tozasertib; first compound 0.08 µM)	relative viability (Tanzisertib + Tozasertib; first compound 0.253 µM)	relative viability (Tanzisertib + Tozasertib; first compound 0.8 µM)	relative viability (Tanzisertib + Tozasertib; first compound 2.53 µM)	relative viability (Tanzisertib + Tozasertib; first compound 8 µM)
NCI-H1793	0.432	0.424	0.445	0.39	0.382	0.842	0.532	0.754	0.754	0.733	0.305	0.331	0.414	0.526	0.289	0.287	0.303	0.246	0.223
NCI-H1915	0.793	0.786	0.78	0.805	0.83	1.15	1.05	1.06	1.04	1.04	0.798	0.784	0.78	0.778	0.401	0.457	0.373	0.384	0.322
NCI-H1944	1.11	1.04	1.04	1.05	1.03	0.876	0.822	0.822	0.789	0.758	0.989	0.937	1.09	1	0.289	0.25	0.237	0.223	0.242
NCI-H1975	1.28	1.09	1.21	1.29	1.03	0.676	0.715	0.719	0.653	0.585	1.18	1.2	1.19	1.09	0.845	0.762	0.838	0.668	0.458
NCI-H1993	1.08	0.909	0.947	0.924	0.803	0.661	0.663	0.524	0.693	0.699	0.9	0.866	1.01	0.908	0.614	0.593	0.592	0.617	0.548
NCI-H2009	1.22	1.27	1.19	1.27	1.22	1.24	1.2	1.14	1.19	1.17	1.16	1.18	1.17	1.14	0.804	0.72	0.775	0.754	0.661
NCI-H2023	1.07	1.05	1.08	0.999	0.962	0.671	0.577	0.627	0.584	0.545	0.909	1.05	1.06	0.979	0.479	0.431	0.409	0.321	0.2
NCI-H2085	1.11	1.05	1.2	1.09	1.14	0.997	0.96	0.966	0.948	1.01	1.21	0.869	1.18	1.24	0.9	0.822	0.914	0.644	0.59
NCI-H2087	1.04	0.961	0.957	1.04	0.95	1.27	1.22	1.24	1.11	1.32	1.04	0.973	0.969	0.903	0.238	0.287	0.277	0.209	0.202
NCI-H2126	0.914	0.854	0.877	0.815	0.893	0.775	0.749	0.749	0.725	0.736	0.858	0.832	0.821	0.828	0.91	0.872	0.85	0.813	0.859
NCI-H2170	0.702	0.496	0.656	0.57	0.582	0.98	0.787	0.796	0.779	0.809	0.472	0.697	0.72	0.698	0.881	0.789	0.669	0.717	0.651
NCI-H2228	0.985	1.06	1.07	1.04	0.742	0.934	0.67	0.806	0.737	0.539	0.82	1.31	0.647	0.951	0.333	0.385	0.241	0.254	0.238
NCI-H2347	0.793	0.809	0.888	0.87	0.837	1.17	1.04	1.1	1.16	1.11	0.784	0.556	0.855	0.823	0.569	–	0.664	0.682	0.365
NCI-H2405	0.968	0.837	1.02	1.03	0.688	0.933	0.696	0.805	0.83	0.547	1.03	0.823	1.5	0.849	0.784	0.744	0.844	0.823	0.73
NCI-H3122	1.03	1.02	1.04	1.07	0.972	0.965	0.735	0.844	0.731	0.782	0.98	1.05	0.979	1.03	0.465	0.393	0.497	0.399	0.377
PC-3 [JPC-3]	0.898	0.815	0.866	0.81	0.853	1.05	1.07	1.12	1.03	0.972	0.835	0.905	0.818	0.786	0.903	0.99	0.943	0.852	0.781
